US20080146624A1, “AMIDINES AS MODULATORS OF INDOLEAMINE 2,3-DIOXYGENASE” (INCYTE CORPORATION, priority 2006, published 2008)

Assays:
[1] = target: T1, Human indoleamine 2,3-dioxygenasae (IDO) (Homo sapiens, UniProt P14902); assay: Human indoleamine 2,3-dioxygenase (IDO) enzyme assay; format: biochemical; conditions: 95 nM IDO, 2 mM D-Trp, pH 6.5, room temperature, absorbance at 321 nm
T1 construct: His tag (N); made in house; host or cells: E. coli
Experimental: Human indoleamine 2,3-dioxygenasae (IDO) with an N-terminal His tag was expressed in E. coli and purified to homogeneity. IDO catalyzes the oxidative cleavage of the pyrrole ring of the indole nucleus of tryptophan to yield N′-formylkynurenine. The assays were performed at room temperature as described in the literature using 95 nM IDO and 2 mM D-Trp in the presence of 20 mM ascorbate, 5 μM methylene blue and 0.2 mg/mL catalase in 50 mM potassium phosphate buffer (pH 6.5). The initial reaction rates were recorded by continuously following the absorbance increase at 321 nm due to the formation of N′-formlylkynurenine. […] The symbol “+” indicates IC50<[…]. The symbol “++” indicates […]. The symbol “+++” indicates IC50>[…].

LLC tumors = conditions: C57B1/6 mice, versus placebo; cited from earlier work
P815 tumor = conditions: pre-immunized immune-competent mice; cited from earlier work

T1 sequence (P14902 whole entry): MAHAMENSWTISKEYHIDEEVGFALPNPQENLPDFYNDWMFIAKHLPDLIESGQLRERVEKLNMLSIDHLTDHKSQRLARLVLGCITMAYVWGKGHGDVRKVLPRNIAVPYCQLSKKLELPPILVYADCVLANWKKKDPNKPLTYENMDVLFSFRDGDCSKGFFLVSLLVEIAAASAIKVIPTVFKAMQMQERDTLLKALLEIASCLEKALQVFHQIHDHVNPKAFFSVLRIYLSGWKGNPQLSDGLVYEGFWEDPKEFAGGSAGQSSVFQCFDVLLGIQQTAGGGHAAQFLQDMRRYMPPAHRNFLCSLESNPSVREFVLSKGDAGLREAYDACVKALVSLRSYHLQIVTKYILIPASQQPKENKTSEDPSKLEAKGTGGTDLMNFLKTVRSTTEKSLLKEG

| IC50 [1] | Structure (SMILES) | formation of tumors (LLC tumors) | growth of tumors (P815 tumor) |
| --- | --- | --- | --- |
| > 10 µM | N#Cc1cc(NC(=NO)c2ccoc2)ccc1F [Example 12, N-(3-cyano-4-fluorophenyl)-N′-hydroxyfuran-3-carboximidamide] | – | – |
| – | Cn1cc(C[C@H](N)C(=O)O)c2ccccc21 [Example 1-MT, 1-methyl-tryptophan] | markedly delayed | inhibited |
| > 10 µM | N#Cc1cccc(NC(=NO)c2ccoc2)c1 [Example 11, N-(3-cyanophenyl)-N′-hydroxy-furan-3-carboximidamide] | – | – |
